These are literature values, as cited in patent US20170276692A1, “METHODS OF MONITORING FOR ADHERENCE TO BREXPIPRAZOLE (REXULTI®) THERAPY” (Ameritox, LLC, priority 2016, published 2017).

For series [1] the following is noted: for predominant route of excretion: in vivo.
For series [2] the following is noted: brexpiprazole is the predominant species.

SMILES strings stand for the structures.

Regarding `O=c1ccc2ccc(OCCCCN3CCN(c4cccc5sccc45)CC3)cc2[nH]1` [Brexpiprazole], where the note is “after oral administration”, the oral bioavailability was 95%. In addition, the “time to steady state serum concentrations” value (days of dosing) was 10 to 12 days. The mean elimination half-life (in vivo) was 91 h. The “fraction of an oral dose excreted as unchanged brexpiprazole in feces” value in series [1] (oral dose, feces) was 14%. In addition, the “fraction of an oral dose excreted as unchanged brexpiprazole in urine” value in series [1] (oral dose, urine) was “Less than 1%”.

As for `O=C(O)CCCOc1ccc2ccc(=O)[nH]c2c1` [OPC3952], in series [2], the “metabolite level in plasma” value is listed as 0-4%. Moreover, the “predominant route of excretion” value in series [1] is recorded as “excreted predominantly in urine”.

On to `c1cc(N2CCNCC2)c2ccsc2c1` [SF034318], for which, in series [1], the “predominant route of excretion” value is “excreted predominantly in urine”.
